Assay results published in US10301203B2, “Chloroperoxidase-catalyzed degradation of pharmaceutical pollutants in wastewater” (THE FLORIDA INTERNATIONAL UNIVERSITY BOARD OF TRUSTEES, priority 2017, dated 2019).
≈ marks a conversion by molar mass, not a printed value.

Columns and labels:
[1] = target: T1, chloroperoxidase (CPO) (Leptoxyphium fumago, UniProt P04963); assay: CPO-catalyzed degradation of diclofenac and naproxen, HPLC; assay type: biochemical, C. fumago; design: CPO was isolated from the growth medium of C. fumago; made in house; host or cells: Caldariomyces fumago growth medium (native producer); conditions: for CPO concentration for complete degradation: 15 μmol/L drug, 0.1 mmol/L H2O2; for fraction of drug degraded within 1 min / time to complete degradation: optimum reaction condition; for pH of maximum degradation efficiency: pH range 2-6
T1 sequence (P04963 21-319 limits assumed): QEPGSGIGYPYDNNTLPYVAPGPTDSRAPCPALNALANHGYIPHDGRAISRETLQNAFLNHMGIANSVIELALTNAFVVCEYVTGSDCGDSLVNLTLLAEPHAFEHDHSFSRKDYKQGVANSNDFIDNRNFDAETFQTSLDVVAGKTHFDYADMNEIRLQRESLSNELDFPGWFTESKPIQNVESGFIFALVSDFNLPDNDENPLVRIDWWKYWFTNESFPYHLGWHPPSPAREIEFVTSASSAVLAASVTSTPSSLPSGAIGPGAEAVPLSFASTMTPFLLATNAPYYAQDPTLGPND
Protocol: Enzymatic degradation of both drugs was carried out in 0.1 mol·L-1 phosphate buffer in a centrifugal tube with a total volume of 3.0 mL containing CPO (0.25-0.23 nmol·L-1), 20 mmol·L-1 KCl, and drugs (15 μmol·L^−1) at pH 2˜6 at 298K. The reaction was started by adding H2O2 (0.015-0.3 mmol·L^−1) in the absence of light under magnetic stirring and was continued for 20 min. The supernatant of the reaction mixture was extracted 3 times using ethyl acetate. The combined organic extract was concentrated by rotary evaporation (0.09 MPa, 308K) to remove the solvent. The extracts were then dissolved in acetonitrile and methanol, respectively, for HPLC (LC-20AT, Shimadzu) analysis. The mobile phase consisted of 80:20 (v/v) acetonitrile and water for diclofenac and 90:10 (v/v) methanol and water for naproxen, and the flow rate was 0.5 ml·min^−1. The detector was set at 274 nm and 235 nm for diclofenac and naproxen, respectively. The quantitative analysis of the target compounds was based on the standard curve (correlation coefficients were >0.999). The effect of reaction parameters (pH, concentration of enzyme/H2O2, and reaction time) on degradation efficiency was investigated and optimized.
All experiments were triplicated and data reported were mean values of three independent measurements.

[2] = system: C. pyrenoidosa; assay: Growth-inhibitory (eco-toxicity) test on freshwater green alga; assay type: cell-based, Chlorella pyrenoidosa; conditions: Auxenochlorella pyrenoidosa, 72 h; at the end of CPO-catalyzed degradation (product mixture of the named drug)
Protocol: Freshwater unicellular green alga, C. pyrenoidosa (provided by the Institute of Wuhan Hydrobiology, Chinese Academic of Science), was cultivated in nutrient media of blue green medium (BG11) at 298K and illuminated with cool-white fluorescent lights at a continuous light intensity of 2000 Lx. For cell experiments, C. pyrenoidosa was exposed, during its log growth phase, to the toxicant at five different concentrations (maintain final concentration ranging from 0.01 to 0.36 mg/L) for 3-4 days at 298K. The concentration of the alga was determined by monitoring the change of absorption at 680 nm (Ma et al., 2006). The toxicity tests for each drug concentration were conducted in triplicate.
The growth inhibition rate for each sample was calculated.
However, toxicity evaluation about the products from diclofenac and naproxen are not readily available. Biological assays offer a direct measure to evaluate the magnitude of the potential health risk of chemicals. Therefore, a growth-inhibitory test was carried out using C. Pyrenoidosa.

[3] = MTT assay, cell viability; assay type: cell-based; conditions: human, MDA-MB-231 breast cancer cells, read-out: MTT incorporation (cell viability) as percentage of control
Protocol: After incubation, the medium was removed and formazan crystals were dissolved in detergent reagent following the manufacturer's instructions (ATCC). Optical density for each condition was determined at 570 nm. MTT incorporation was expressed as percentage of the control in the absence of compounds.

[4] = target: T1, chloroperoxidase (CPO); assay: CPO-catalyzed degradation in CPO-H2O2-Cl- system, LC-Q-TOF-MS; assay type: biochemical, Caldariomyces fumago; design: The isolation of CPO proposed in this study was a modification of the protocol reported by Morris and Hager (1966); made in house; host or cells: native producer
Protocol: The mixture was centrifuged at 3,000 g in Centriprep® centrifugal filter unit with a 30,000 Dalton cut-off membrane (EMD Millipore, Billerica, Mass., USA). The yielded product was collected after being centrifuged for 1 min. Ethyl acetate was used to extract the filtrate while shaking vigorously, and the supernatant was evaporated to dryness using nitrogen gas. The dried metabolites were dissolved in H2O/methanol (95:5 v/v) to achieve a final concentration of 1 mg/L (ppm). Each sample was either stored in a freezer at −20° C. or immediately run in the LC-Q-TOF-MS mass spectrometer system.
Chromatographic separation and identification of metabolites was performed using the Agilent 1290 Infinity UPLC system coupled with Agilent 6530 Q-TOF mass spectrometer. The Agilent MassHunter Data Acquisition Software (rev. B0.06.00) was used to control the UPLC and the mass spectrometer. Mass Hunter Qualitative Data Analysis Software (Rev. B.07.00) was used for data mining and identification. An Agilent ZORBAX Eclipse plus C18 Rapid Resolution High Definition (RRHD) column (100 mm×1.8 μm) was applied, with the column temperature set at 30° C. via a thermostatted column compartment (TCC). An infinity 1290 automatic injector was used to inject 1 μL of the sample to the column. […]

[5] = target: T1, chloroperoxidase (CPO); assay: CPO-catalyzed degradation of CBZ, UV-Vis at 285 nm; assay type: biochemical, Caldariomyces fumago; design: The isolation of CPO proposed in this study was a modification of the protocol reported by Morris and Hager (1966); made in house; host or cells: native producer; conditions: 20 mM Cl-, 0.07 mM CBZ, 0.07 mM H2O2, 2.5 nM CPO
Protocol: A VARIAN UV-Vis spectrophotometer (Cary 200 Bio) was used to collect the UV spectra of the degradation products. The drug solution was scanned by dissolving 0.07 mM CBZ in 100 mM KH2PO4 buffer with 20 mM KCl at pH 2.75. The same solution was monitored after being mixed with 0.35 mM H2O2. UV spectra were recorded after the addition of 5 nM CPO for 1 min., 2.5 min., and 4 min.
The effect of the concentration of chloride was investigated. Degradation was carried out in 100 mM phosphate buffer at pH 3.0 with 0.07 mM CBZ and 0.07 mM H2O2. Concentration of chloride was increased from 0 to 20 mM. 285 nm wavelength was monitored immediately after 2.5 nM CPO was added.
The degradation rate at pH range of 2.0 to 5.0 was investigated to probe the effect of pH on the CPO-catalyzed reaction. The reaction was carried out in 100 mM phosphate buffer with 20 mM KCl, 0.07 mM CBZ, and 0.07 mM H2O2. […] 285 nm wavelength was monitored immediately after the addition of 2.5 nM CPO. The calculated time was 0.2 to 0.4 min.
The degradation rate of CBZ was determined by different concentrations of H2O2, ranging from 0.07 to 0.71 mM, in 100 mM phosphate buffer with 20 mM KCl and 0.07 mM CBZ at pH 3.0. A wavelength of 285 nm was monitored immediately after the addition of 5 nM CPO. The degradation rate was calculated at 0.1 to 0.3 min.
The rate was calculated by monitoring absorbance at 285 nm from 0.1 to 0.2 min. […]

SMILES: COc1ccc2cc(C(C)C(=O)O)ccc2c1 (stereo not shown) [naproxen, 2-(6-methoxynaphthalen-2-yl)propionic acid]
- CPO concentration for complete degradation [1]: > 20.0 nmol/L
- fraction of drug degraded within 1 min [1]: ~75%
- time to complete degradation [1]: 7 min
- pH of maximum degradation efficiency [1]: ~3.2
- EC50 [2]: 0.33 µg/mL (≈ 1.43 µM)

SMILES: Cc1cc(C)nc(NS(=O)(=O)c2ccc(N)cc2)n1 [SMZ, Sulfamethazine]
- viability at 24 h, 0.0425 μg/ml [3]: 80%
- viability at 24 h, 0.85 μg/ml [3]: 50%
- viability at 24 h, 1.7 μg/ml [3]: 40%
- degradation efficiency ([4]; 62.45 μM SMZ, 1.3 nM CPO, H2O2 added stepwise, 30 min): 100%

SMILES: O=C([O-])Cc1ccccc1Nc1c(Cl)cccc1Cl.[Na+] [diclofenac, 2-[(2,6-dichlorophenyl)amino]benzeneacetic acid; sodium salt]
- CPO concentration for complete degradation [1]: above 5.0 nmol·L^−1
- fraction of drug degraded within 1 min [1]: about 70%
- time to complete degradation [1]: 9 min
- pH of maximum degradation efficiency [1]: ~3.2
- EC50 [2]: 0.25 µg/mL

SMILES: NC(=O)N1c2ccccc2C=Cc2ccccc21 [CBZ, Carbamazepine]
- optimum pH for degradation [5]: 3.0
- viability at 24 h, 0.0425 μg/ml [3]: 80%
- viability at 24 h, 0.85 μg/ml [3]: 60%
- viability at 24 h, 1.7 μg/ml [3]: 45%
- degradation efficiency ([4]; 10.59 μM (2.5 mg/L) CBZ, 107.19 μM H2O2, 2.9 nM CPO, 10 min): 100%
